Like-named read-outs stand apart in the source and are kept apart here.
Tests used:
C1b domain of human PKCδ = molecular target: T1, C1b domain of human PKCδ (Homo sapiens, UniProt Q05655); test: Competitive 3H-PDBu binding to C1b domain of PKCδ; details: Ki PKCδ, 3H-PDBu competition
T1 construct: Genes encoding C1b domains of human PKCα, δ, ε, θ, and PKD1 (PKCμ) were synthesized; made in house; host or cells: E. coli BL21(DE3)
Procedure: (§1) Compounds described in this disclosure were tested for binding affinity to C1b domain of PKC isoforms. Compound binding affinity to C1b domain of PKC isoforms was derived from competitive binding assay using radioactive tracer ^3H-PDBu and recombinant GST-C1b or full-length of human PKC proteins based on modified procedures from Methods in Molecular Biology, vol.
(§2) Genes encoding C1b domains of human PKCα, δ, ε, θ, and PKD1 (PKCμ) were synthesized and inserted into pGEX-2TK or pGEX-4T1 vectors for expression and production of GST-C1b proteins in E. coli BL21(DE3) via IPTG induction. The target proteins were purified by glutathione sepharose 4B and followed by ion exchange chromatography if needed to achieve purity >70%. Aliquots of the purified proteins were stored at −80 degree for binding assay (storage buffer: 20 mM Tris pH 8.0, 200 mM NaCl, 10% glycerol, 1 mM DTT).
(§3) The plate was incubated at 37° C. on a shaker at 300 rpm for 10 minutes and then put on ice for 20 minutes. […] The bottom of the filter plate was sealed and 50 μL of MicroScint-20 (PerkinElmer) cocktail was added to each well. ^3H-PDBu trapped in each well was counted using PerkinElmer MicroBeta2 Reader. Data were analyzed using GraphPad Prism5 with the model “log(inhibitor) vs. response-variable slope” to fit the IC50, and then IC50 was transformed to Ki using Cheng-Prusoff equation: Ki=IC50/(1+added radio ligand/Kd). Kd is the binding affinity of each protein preparation to ^3H-PDBu, determined experimentally.

[1] = system: A549 non-small cell lung cancer cell line; test: Proliferation of A549 (CellTiter Glo); type: cell-based; details: Homo sapiens, read-out: IC50 μM (A549 Cell Line)
Procedure: The diterpenoid compounds were tested in A549, a non-small cell lung cancer cell line harboring a K-Ras activating mutation. Briefly, A549 cells at a density of 1,000 cells/well were seeded in 96-well plates and incubated at 37° C. for 24 hours. A series of different concentrations of compound stocks (500×) were prepared by 3-fold serial dilution in DMSO. These compounds were further diluted in culture media and then added to cells so that the final DMSO concentration was not exceeding 0.25%. After 96 hours of incubation, 50 μL of CellTiter Glo reagent (Promega) was added to each well and luminescence was measured after 10 minutes using EnVision (PerkinElmer). Luminescence from cells treated with DMSO alone was set as Max and % of inhibition was calculated as follows: Inhibition %=(Max−Sample value)/Max×100. Data was analyzed using XL-fit software (ID Business Solutions Ltd.) and IC50, relative IC50, and % of top inhibition was calculated. Some of the compounds in this disclosure were very potent in blocking proliferation of A549 lung cancer cells at low nM range. In addition, potency of inhibiting A549 proliferation correlated well with its binding affinity to PKCs for this series of compounds. In other words, higher affinity binders had stronger inhibitory effects on A549 proliferation. This further support the notion that activation, rather than inhibition, of certain PKC isoforms is required to block proliferation of cancer cells, some of which may harbor K-Ras mutations. This is in sharp contrast to previous literature and common belief that inhibition of PKC is necessary to block cancer cell growth (Kang, 2014, New Journal of Science, 2014:1-36). Data presented here is in agreement with recent findings that many loss-of-function but not gain-of-function mutations of PKC isoforms have been identified in many human cancers (Antal et al., 2015, Cell, 160:489-502).

[2] = molecular target: T2, C1b domain of human PKD1 (PKCμ) (Homo sapiens, UniProt Q15139); test: biochemical; type: binding
T2 construct: Genes encoding C1b domains of human PKCα, δ, ε, θ, and PKD1 (PKCμ) were synthesized; made in house; host or cells: E. coli BL21(DE3)
T2 sequence (Q15139 270-320 limits assumed): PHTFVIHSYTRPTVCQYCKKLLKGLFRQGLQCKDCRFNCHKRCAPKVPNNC
Procedure: as §1, §2, §3

C1b domain of human PKCα = molecular target: T3, C1b domain of human PKCα (Homo sapiens, UniProt P17252); test: biochemical; type: binding; details: Ki PKCα, 3H-PDBu competition
T3 construct: Genes encoding C1b domains of human PKCα, δ, ε, θ, and PKD1 (PKCμ) were synthesized; made in house; host or cells: E. coli BL21(DE3)
Procedure: as §1, §2
The plate was incubated at 37° C. on a shaker at 300 rpm for 10 minutes and then put on ice for 20 minutes. […] The bottom of the filter plate was sealed and 50 μL of MicroScint-20 (PerkinElmer) cocktail was added to each well. ^3H-PDBu trapped in each well was counted using PerkinElmer MicroBeta2 Reader. […] Kd is the binding affinity of each protein preparation to ^3H-PDBu, determined experimentally.

[3] = A549, 96 hours incubation, CellTiter Glo

T1 sequence (Q05655 230-280 limits assumed): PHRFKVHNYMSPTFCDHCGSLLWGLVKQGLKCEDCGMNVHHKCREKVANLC

Compound | Ki (C1b domain of human PKCδ) [nM] | IC50 ([1]; A549, 96 h) [µM] | Ki [2] [nM] | Ki (C1b domain of human PKCα) [nM] | IC50 [1, 3] [µM]
CC1=C[C@H]2[C@@]3(O)[C@H](C)C[C@]4(OC(=O)C[C@@H](N)c5ccccc5)[C@H]([C@@H]3C=C(CO)C[C@]2(O)C1=O)C4(C)C [Compound K101-C1357] | 200 to 400 | 2 to 5 | 30 to 60 | > 8000 | 
CC1=C[C@H]2[C@@]3(O)[C@H](C)C[C@]4(OC(=O)[C@H](CC5CCCCC5)N(C)C)[C@H]([C@@H]3C=C(CO)C[C@]2(O)C1=O)C4(C)C [Compound K101-C1365] | 100 to 200 | 0.6 to 1 | 30 to 60 | 4000 to 6000 | 
CC1=C[C@H]2[C@@]3(O)[C@H](C)C[C@]4(OC(=O)CCCCCCCCCCC(=O)O)[C@H]([C@@H]3C=C(CO)C[C@]2(O)C1=O)C4(C)C [Compound K101-C1334] | 400 to 800 | 10 to 30 | 30 to 60 | > 8000 | 
CC1=C[C@H]2[C@@]3(O)[C@H](C)C[C@]4(OC(=O)[C@@H](N)CC5CCCC5)[C@H]([C@@H]3C=C(CO)C[C@]2(O)C1=O)C4(C)C [Compound K101-C1332] | 5 to 10 | 0.1 to 0.2 | 5 to 10 | 100 to 200 | 
CC1=C[C@H]2[C@@]3(O)[C@H](C)C[C@]4(OC(=O)[C@@H](N)CCc5ccccc5)[C@H]([C@@H]3C=C(CO)C[C@]2(O)C1=O)C4(C)C [Compound K101-C135602] | 1 to 30 |  |  | 200 to 400 | 
CC1=C[C@H]2[C@@]3(O)[C@H](C)C[C@]4(OC(=O)[C@@H](N)C56CC(F)(C5)C6)[C@H]([C@@H]3C=C(CO)C[C@]2(O)C1=O)C4(C)C [Compound K101-C137302] |  |  |  |  | 10 to 30
CC1=C[C@H]2[C@@]3(O)[C@H](C)C[C@]4(OC(=O)C[C@@H](N)Cc5ccccc5)[C@H]([C@@H]3C=C(CO)C[C@]2(O)C1=O)C4(C)C [Compound K101-C1344] | 30 to 60 | 1 to 2 | 1 to 30 | 1000 to 2000 | 
CC1=C[C@H]2[C@@]3(O)[C@H](C)C[C@]4(OC(=O)C[C@@H](N)CCc5ccccc5)[C@H]([C@@H]3C=C(CO)C[C@]2(O)C1=O)C4(C)C [Compound K101-C1350] | 1 to 30 | 0.6 to 1 | < 5 | 400 to 800 | 
CC1=C[C@H]2[C@@]3(O)[C@H](C)C[C@]4(OC(=O)[C@@H](N)C5Cc6ccccc6C5)[C@H]([C@@H]3C=C(CCl)C[C@]2(O)C1=O)C4(C)C [K101-C1329-Cl] |  |  |  |  | 0.06 to 0.1
CCCCCCCCCCCCCCCCCCC(CC(=O)O[C@@]12C[C@@H](C)[C@@]3(O)[C@@H](C=C(CO)C[C@]4(O)C(=O)C(C)=C[C@@H]34)[C@@H]1C2(C)C)C(=O)O (stereo partly shown) [Compound K101-C1352] | 200 to 400 | 5 to 10 | 200 to 400 | 4000 to 6000 | 
CC1=C[C@H]2[C@@]3(O)[C@H](C)C[C@]4(OC(=O)CCc5scnc5C)[C@H]([C@@H]3C=C(CO)C[C@]2(O)C1=O)C4(C)C [Compound K101-C1320] | 30 to 60 | 0.2 to 0.6 | 1 to 30 | 2000 to 4000 | 
CC1=C[C@H]2[C@@]3(O)[C@H](C)C[C@]4(OC(=O)[C@@H](N)CC5CC5)[C@H]([C@@H]3C=C(CO)C[C@]2(O)C1=O)C4(C)C [Compound K101-C1330] |  | 2 to 5 | 30 to 60 | 1000 to 2000 | 
CCCC[C@H](N)C(=O)O[C@@]12C[C@@H](C)[C@@]3(O)[C@@H](C=C(CO)C[C@]4(O)C(=O)C(C)=C[C@@H]34)[C@@H]1C2(C)C [Compound K101-C1317] | 1 to 30 | 0.6 to 1 | < 5 | 800 to 1000 | 

Reference: patent publication US20220411362A1, “DITERPENOID COMPOUNDS THAT ACT ON PROTEIN KINASE C (PKC)” (K-Gen, Inc., priority 2019, published 2022)
